Values joined by “and” are separate entries in the source; they are usually repeats but may differ in a detail not shown here. Identical values can stand only once.
Tests used:
[1] = Plasma concentration vs. time profile of Compound Ib in rhesus after single subcutaneous dose (SHIV challenge study); assay type: in vivo, rhesus macaques
Description: Eight animals per group were treated with a single dose of placebo control, 150 mg/kg of a compound of Formula (Ib) (“Compound 1b”) or 300 mg/kg of a compound of Formula (Ib) (“Compound 1b”) on week 0 and allowed to wash out over time. All animals were challenged intrarectally with SHIV weekly beginning on week 1 until detectable viremia or up to a maximum of 15 challenges. SHIV challenge titer was increased over time from 10 TCID50 to 100 TCID50 through week 15 as depicted. Animal SHIV infection rate was assessed by weekly plasma viral load monitoring by qRT-PCR through study week 20.
Mean±s.d. values are shown.
PK analysis details: Rhesus plasma samples were stored frozen at −80° C. and analyzed using high resolution mass spectrometry (HRMS) with electrospray ionization in the positive mode. Quantification was performed using an accurate mass ([M+H]+) of 958.1853 for a compound of Formula (Ib) (“Compound Ib”) and 758.3270 for the internal standard, respectively.

SHIV-162P3 = experiment: 7-day antiviral assay (p24 ELISA endpoint) in rhesus PBMCs infected with SHIV-162P3; assay type: cell-based
Description: (§1) The mean 95% effective concentration (EC95) of 1.91±0.16 nM for a compound of Formula (Ib) (“Compound Ib”) was determined using a 7-day antiviral assay (p24 ELISA endpoint) in rhesus peripheral blood mononuclear cells (PBMCs) infected with SHIV-162P3. A competitive equilibrium dialysis assay was used to quantify rhesus plasma protein binding to Compound Ib, resulting in an inhibitory quotient (IQ) equal to Compound Ib plasma concentrations divided by a mean rhesus plasma protein-binding-adjusted EC95 (paEC95) value of 30.2±2.5 nM.

rhesus plasma protein = experiment: Competitive equilibrium dialysis (EQDS) assay, rhesus plasma protein binding; assay type: in vitro ADME; conditions: EC95 adjusted for rhesus plasma protein binding (competitive equilibrium dialysis)
Description: as §1
Equilibrium dialysis shift (EQDS) assay details: Rhesus plasma protein binding to a compound of Formula (Ib) (“Compound Ib”) was determined by competitive equilibrium dialysis. Rhesus plasma (10%) was spiked with Compound Ib (2 μM) and blank RPMI cell culture medium containing 2% fetal bovine serum (CCM) were placed into opposite sides of assembled dialysis cells, and incubations were performed in triplicate. After a 24-h equilibration period at 37° C., samples were corrected for the matrix effect, quenched, and quantified by liquid chromatography tandem mass spectrometry (LC-MS/MS) with electrospray ionization in positive mode and multiple-reaction monitoring (MRM). The fold change value in 100% rhesus plasma was then calculated using the plasma/CCM ratio after correcting for the sample dilution factor and the percent free fraction in the matrix.

SMILES: CC(C)(C#Cc1ccc(-c2ccc(Cl)c3c(NS(=O)(=O)C4CC4)nn(CC(F)F)c23)c([C@H](Cc2cc(F)cc(F)c2)NC(=O)Cn2nc(C(F)F)c3c2C(F)(F)[C@@H]2C[C@H]32)n1)S(C)(=O)=O [Compound Ib, N—((S)-1-(3-(4-chloro-3-(cyclopropanesulfonamido)-1-(2,2-difluoroethyl)-1H-indazol-7-yl)-6-(3-methyl-3-(methylsulfonyl)but-1-yn-1-yl)pyridin-2-yl)-2-(3,5-difluorophenyl)ethyl)-2-((3b S,4aR)-3-(difluoromethyl)-5,5-difluoro-3b,4,4a,5-tetrahydro-1H-cyclopropa[3,4]cyclopenta[1,2-c]pyrazol-1-yl)acetamide]
- Plasma Compound Ib Concentrations ([1]; 150 mg/kg SC day 0, individual animals, study week 1, SHIV dose 10 x TCID50): 3112 nM and 2516 nM and 762 nM and 882 nM
- Plasma Compound Ib Concentrations ([1]; 150 mg/kg SC day 0, individual animals, study week 2, SHIV dose 10 x TCID50): 2108 nM and 2027 nM and 1059 nM and 1219 nM
- Plasma Compound Ib Concentrations ([1]; 150 mg/kg SC day 0, individual animals, study week 3, SHIV dose 10 x TCID50): 750 nM and 1371 nM and 334 nM and 209 nM
- Plasma Compound Ib Concentrations ([1]; 150 mg/kg SC day 0, individual animals, study week 4, SHIV dose 10 x TCID50): 538 nM and 448 nM and 225 nM and 165 nM
- Plasma Compound Ib Concentrations ([1]; 150 mg/kg SC day 0, individual animals, study week 5, SHIV dose 10 x TCID50): 333 nM and 449 nM and 141 nM and 113 nM
- Plasma Compound Ib Concentrations ([1]; 150 mg/kg SC day 0, individual animals, study week 6, SHIV dose 10 x TCID50): 164 nM and 313 nM and 82 nM and 78 nM
- Plasma Compound Ib Concentrations ([1]; 150 mg/kg SC day 0, individual animals, study week 7, SHIV dose 10 x TCID50): 139 nM and 250 nM and 69 nM and 46 nM
- Plasma Compound Ib Concentrations ([1]; 150 mg/kg SC day 0, individual animals, study week 8, SHIV dose 10 x TCID50): 118 nM and 160 nM and 80 nM and 56 nM and 82 nM
- Plasma Compound Ib Concentrations ([1]; 150 mg/kg SC day 0, individual animals, study week 9, SHIV dose 33 x TCID50): 54 nM and 140 nM and 58 nM and 14 nM
- Plasma Compound Ib Concentrations ([1]; 300 mg/kg SC day 0, individual animals, study week 1, SHIV dose 10 x TCID50): 5528 nM and 3174 nM and 2251 nM and 1572 nM and 7818 nM and 2215 nM and 1944 nM
- Plasma Compound Ib Concentrations ([1]; 300 mg/kg SC day 0, individual animals, study week 2, SHIV dose 10 x TCID50): 1944 nM and 2466 nM and 1332 nM and 2066 nM and 3983 nM and 1949 nM and 1830 nM
- Plasma Compound Ib Concentrations ([1]; 300 mg/kg SC day 0, individual animals, study week 3, SHIV dose 10 x TCID50): 942 nM and 1003 nM and 894 nM and 508 nM and 1654 nM and 632 nM and 742 nM
- Plasma Compound Ib Concentrations ([1]; 300 mg/kg SC day 0, individual animals, study week 4, SHIV dose 10 x TCID50): 863 nM and 664 nM and 530 nM and 359 nM and 725 nM and 416 nM and 362 nM
- Plasma Compound Ib Concentrations ([1]; 300 mg/kg SC day 0, individual animals, study week 5, SHIV dose 10 x TCID50): 402 nM and 487 nM and 395 nM and 266 nM and 523 nM and 268 nM and 377 nM
- Plasma Compound Ib Concentrations ([1]; 300 mg/kg SC day 0, individual animals, study week 6, SHIV dose 10 x TCID50): 370 nM and 282 nM and 382 nM and 161 nM and 242 nM and 273 nM and 350 nM
- Plasma Compound Ib Concentrations ([1]; 300 mg/kg SC day 0, individual animals, study week 7, SHIV dose 10 x TCID50): 180 nM (2×) and 261 nM and 339 nM and 132 nM and 158 nM and 307 nM
- Plasma Compound Ib Concentrations ([1]; 300 mg/kg SC day 0, individual animals, study week 8, SHIV dose 10 x TCID50): 209 nM and 240 nM and 319 nM and 140 nM and 378 nM and 155 nM and 226 nM
- Plasma Compound Ib Concentrations ([1]; 300 mg/kg SC day 0, individual animals, study week 9, SHIV dose 33 x TCID50): 127 nM and 131 nM and 83 nM and 88 nM and 177 nM and 104 nM and 122 nM
- concentration at 12 weeks ([1]; both sexes, rhesus monkey, plasma, subcutaneous, 300 mg/kg, 300 mg/kg SC day 0, individual animals, study week 12, SHIV dose 100 x TCID50, read-out: Plasma Compound Ib Concentrations): 83 nM
- concentration at 15 weeks ([1]; both sexes, rhesus monkey, plasma, subcutaneous, 300 mg/kg, 300 mg/kg SC day 0, individual animals, study week 15, SHIV dose 100 x TCID50, read-out: Plasma Compound Ib Concentrations): 45 nM
- mean 95% effective concentration (EC95) (SHIV-162P3): 1.91 ± 0.16 nM
- mean rhesus plasma protein-binding-adjusted EC95 (paEC95) (rhesus plasma protein): 30.2 ± 2.5 nM
